Results: patent US20260138976A1 (Hoffmann-La Roche Inc., priority 2022, published 2026)

What was measured:
[1] = molecular target: T1, DGKα (hDGKalpha(1-735)-N-His) (Homo sapiens, UniProt P23743); assay: In vitro DGK inhibition assay, DGKalpha ADP Glo (in house); assay type: biochemical; settings: 4 nM DGKα, 25 μM ATP, 125 uM DLG in liposomes, 1 hour reaction
T1 construct: hDGKalpha(1-735)-N-His; His (N); made in house; host or cells: Sf21 insect cells (baculovirus)
In short: (§1)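 ADP-Glo luminescence measured ADP formed over 1 h by Sf21-expressed full-length human enzymes: DGKα at 4 nM with 25 µM ATP, DGKζ at 2 nM with 50 µM ATP, both on 125 µM DLG in PS/PC liposomes. Dose–response used 11 threefold dilutions at 2% final DMSO.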

[2] = molecular target: T2, DGKζ (hDGKzeta(1-928)-N-His) (Homo sapiens, UniProt Q13574); assay: In vitro DGK inhibition assay, DGKzeta ADP Glo (in house); assay type: biochemical; settings: 2 nM DGKζ, 50 μM ATP, 125 uM DLG in liposomes, 1 hour reaction
T2 construct: hDGKzeta(1-928)-N-His; His (N); made in house; host or cells: Sf21 insect cells (baculovirus)
In short: as §1

primary human T-cells = assay: Proliferation assay (5 days, CellTiter-Glo, CD3-stimulated T-cells); assay type: cell-based; settings: for Emax proliferation (% activation): CD3 condition, normalised to DMSO (neutral) and 20 μM reference compound A1 = 100%; for EC50: Homo sapiens, T-cell, 120 h, CD3-stimulated primary human T-cells, 5 days, CellTiter-Glo, fitted sigmoidal curve, read-out: Tcell Proliferation CD3 EC50
In short: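 Proliferation read-out: ATP luminescence (CellTiter-Glo 2.0) at day 5 in expanded primary human T-cells on CD3 antibody-coated plates, with PBS-only plates as a counter screen. Compounds in 5–6 pt series (factor 3.333, top 20 or 10 μM final). Values are normalized to DMSO (neutral) and 20 μM reference A1 (100%), from sigmoidal fits.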

T2 sequence (Q13574 whole entry): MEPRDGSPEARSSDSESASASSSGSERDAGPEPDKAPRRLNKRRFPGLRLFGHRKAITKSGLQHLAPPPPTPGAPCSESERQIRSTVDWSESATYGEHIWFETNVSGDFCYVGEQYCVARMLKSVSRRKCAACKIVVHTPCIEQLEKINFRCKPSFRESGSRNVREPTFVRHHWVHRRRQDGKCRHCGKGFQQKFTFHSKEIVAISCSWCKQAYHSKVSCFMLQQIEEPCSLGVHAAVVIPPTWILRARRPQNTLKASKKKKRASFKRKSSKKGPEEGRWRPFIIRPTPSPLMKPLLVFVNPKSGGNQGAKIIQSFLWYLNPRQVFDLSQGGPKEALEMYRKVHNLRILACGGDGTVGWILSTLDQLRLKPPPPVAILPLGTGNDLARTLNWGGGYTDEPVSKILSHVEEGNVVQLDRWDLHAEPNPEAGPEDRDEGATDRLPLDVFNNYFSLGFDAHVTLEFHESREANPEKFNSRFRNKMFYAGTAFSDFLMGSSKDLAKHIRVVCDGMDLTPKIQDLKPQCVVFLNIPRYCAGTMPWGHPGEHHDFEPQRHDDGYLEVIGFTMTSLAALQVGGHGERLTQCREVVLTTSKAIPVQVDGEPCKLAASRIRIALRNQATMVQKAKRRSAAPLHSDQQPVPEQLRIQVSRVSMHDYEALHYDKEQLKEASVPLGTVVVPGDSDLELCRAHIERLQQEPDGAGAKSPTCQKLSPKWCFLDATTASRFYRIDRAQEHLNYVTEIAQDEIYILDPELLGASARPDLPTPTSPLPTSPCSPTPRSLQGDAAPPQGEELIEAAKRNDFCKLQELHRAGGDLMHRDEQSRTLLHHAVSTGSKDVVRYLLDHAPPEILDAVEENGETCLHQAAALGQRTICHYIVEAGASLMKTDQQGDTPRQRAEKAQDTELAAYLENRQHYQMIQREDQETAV
T1 sequence (P23743 whole entry): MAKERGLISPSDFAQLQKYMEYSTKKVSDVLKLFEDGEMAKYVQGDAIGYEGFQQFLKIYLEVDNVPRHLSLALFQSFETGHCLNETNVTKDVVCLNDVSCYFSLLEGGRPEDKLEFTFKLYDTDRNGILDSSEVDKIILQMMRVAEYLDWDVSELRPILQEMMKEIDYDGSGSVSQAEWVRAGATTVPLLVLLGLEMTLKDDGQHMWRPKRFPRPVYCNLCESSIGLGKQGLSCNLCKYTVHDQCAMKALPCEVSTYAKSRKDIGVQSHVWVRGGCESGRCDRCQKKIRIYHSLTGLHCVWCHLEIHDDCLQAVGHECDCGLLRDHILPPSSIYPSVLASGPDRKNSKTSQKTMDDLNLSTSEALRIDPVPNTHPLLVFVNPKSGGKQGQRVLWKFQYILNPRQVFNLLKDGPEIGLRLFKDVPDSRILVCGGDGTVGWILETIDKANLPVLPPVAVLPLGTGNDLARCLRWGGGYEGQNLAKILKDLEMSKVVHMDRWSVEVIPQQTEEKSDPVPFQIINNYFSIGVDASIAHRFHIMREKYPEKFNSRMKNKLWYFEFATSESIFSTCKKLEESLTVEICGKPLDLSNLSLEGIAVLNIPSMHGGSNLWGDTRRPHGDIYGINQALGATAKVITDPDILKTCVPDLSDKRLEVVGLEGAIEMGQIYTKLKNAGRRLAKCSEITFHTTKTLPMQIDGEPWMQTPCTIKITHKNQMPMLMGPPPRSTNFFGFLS

Row | IC50 [1] [nM] | IC50 [2] [nM] | SMILES | Emax proliferation (% activation) (primary human T-cells) | EC50 (primary human T-cells) [nM]
1 | > 62500 | 2000 | CC(O)(c1nnc(-c2ccc3c(c2)N(Cc2ccc(-c4noc(C5CC5)n4)cc2)C(=O)[C@@H](N)CS3(=O)=O)o1)C(F)(F)F (stereo partly drawn) [Example 170] | 89 | 1010
2 | > 60000 | 722 | N[C@H]1CS(=O)(=O)c2ccc(-c3nnc(C(N)(C4CC4)C(F)(F)F)o3)cc2N(Cc2ccc(-c3noc(C4CC4)n3)cc2)C1=O (stereo partly drawn) [Example 171] | 109 | 1520
3 | 2520 | 732 | N#CC1(c2nnc(-c3ccc4c(c3)N(Cc3ccc(-c5ccc(OC(F)(F)F)cn5)cc3)C(=O)[C@@H](N)CS4(=O)=O)o2)CCC1 [Example 172, 1-[5-[(3R)-3-amino-1,1,4-trioxo-5-[[4-[5-(trifluoromethoxy)-2-pyridyl]phenyl]methyl]-2,3-dihydro-1λ^6,5-benzothiazepin-7-yl]-1,3,4-oxadiazol-2-yl]cyclobutanecarbonitrile] | 101 | 303
4 | 961 | 734 | CC(C)(CC#N)c1nnc(-c2ccc3c(c2)N(Cc2ccc(-c4ccc(OC(F)(F)F)cn4)cc2)C(=O)[C@@H](N)CS3(=O)=O)o1 [Example 175, 3-[5-[(3R)-3-amino-1,1,4-trioxo-5-[[4-[5-(trifluoromethoxy)-2-pyridyl]phenyl]methyl]-2,3-dihydro-1λ^6,5-benzothiazepin-7-yl]-1,3,4-oxadiazol-2-yl]-3-methyl-butanenitrile] | 105 | 121

Second part, the compound before the results:

Row | SMILES | IC50 [1] [nM] | IC50 [2] [nM] | Emax proliferation (% activation) (primary human T-cells) | EC50 (primary human T-cells) [nM]
5 | C[C@@](N)(c1nnc(-c2ccc3c(c2)N(Cc2ccc(-c4ccc(OC(F)(F)F)cn4)cc2)C(=O)[C@@H](N)CS3(=O)=O)o1)C(F)(F)F [Example 153, (3R)-3-amino-7-[5-[(1R)-1-amino-2,2,2-trifluoro-1-methyl-ethyl]-1,3,4-oxadiazol-2-yl]-1,1-dioxo-5-[[4-[5-(trifluoromethoxy)-2-pyridyl]phenyl]methyl]-2,3-dihydro-1λ^6,5-benzothiazepin-4-one] | 2050 | 2250 | 178 | 130
6 | C[C@@](N)(c1nnc(-c2ccc3c(c2)N(Cc2ccc(-c4ccc(C(F)(F)F)cn4)cc2)C(=O)[C@@H](N)CS3(=O)=O)o1)C(F)(F)F [Example 154, (3R)-3-amino-7-[5-[(1R)-1-amino-2,2,2-trifluoro-1-methyl-ethyl]-1,3,4-oxadiazol-2-yl]-1,1-dioxo-5-[[4-[5-(trifluoromethyl)-2-pyridyl]phenyl]methyl]-2,3-dihydro-1λ^6,5-benzothiazepin-4-one] | 23600 | 3100 | 151 | 984
7 | C[C@@](N)(c1nnc(-c2ccc3c(c2)N(Cc2ccc(-n4nnc(C(F)(F)F)n4)cc2)C(=O)[C@@H](N)CS3(=O)=O)o1)C(F)(F)F [Example 156, (3R)-3-amino-7-[5-[(1R)-1-amino-2,2,2-trifluoro-1-methyl-ethyl]-1,3,4-oxadiazol-2-yl]-1,1-dioxo-5-[[4-[5-(trifluoromethyl)tetrazo 1-2-yl]phenyl]methyl]-2,3-dihydro-1λ^6,5-benzothiazepin-4-one] | 17800 | 2960 | 141 | 1710
8 | COC(=O)N1CC2CC(c3nnc(-c4ccc5c(c4)N(Cc4ccc(-c6noc(C(F)(F)F)n6)cc4)C(=O)[C@@H](N)CS5(=O)=O)o3)(C2)C1 [Example 158, methyl 1-[5-[(3R)-3-amino-1,1,4-trioxo-5-[[4-[5-(trifluoromethyl)-1,2,4-oxadiazol-3-yl]phenyl]methyl]-2,3-dihydro-1λ^6,5-benzothiazepin-7-yl]-1,3,4-oxadiazol-2-yl]-3-azabicyclo[3.1.1]heptane-3-carboxylate] | > 60000 | 1130 | 150 | 304
9 | N[C@H]1CS(=O)(=O)c2ccc(-c3nnc(N4CCC(F)(F)CC4)o3)cc2N(Cc2ccc(-c3ccc(C(F)(F)F)cn3)cc2)C1=O [Example 160] | 5180 | 922 | 150 | 1300
10 | N[C@H]1CS(=O)(=O)c2ccc(-c3nnc(N4CCC(F)(F)CC4)o3)cc2N(Cc2ccc(-n3ccc(C(F)(F)F)n3)cc2)C1=O [Example 162, (3R)-3-amino-7-[5-(4,4-difluoro-1-piperidyl)-1,3,4-oxadiazol-2-yl]-1,1-dioxo-5-[[4-[3-(trifluoromethyl)pyrazol-1-yl]phenyl]methyl]-2,3-dihydro-1λ^6,5-benzothiazepin-4-one] | > 62500 | 1100 | 186 | 563
11 | CC(C)(c1nnc(-c2ccc3c(c2)N(Cc2ccc(-c4ccc(OC(F)(F)F)cn4)cc2)C(=O)[C@@H](N)CS3(=O)=O)o1)C(F)(F)F [Example 165, (3R)-3-amino-1,1-dioxo-7-[5-(2,2,2-trifluoro-1,1-dimethyl-ethyl)-1,3,4-oxadiazol-2-yl]-5-[[4-[5-(trifluoromethoxy)-2-pyridyl]phenyl]methyl]-2,3-dihydro-1λ^6,5-benzothiazepin-4-one] | 1140 | 2220 | 139 | 153
12 | N[C@H]1CS(=O)(=O)c2ccc(-c3nnc(C(F)C(F)(F)F)o3)cc2N(Cc2ccc(-c3noc(C4CC4)n3)cc2)C1=O (stereo partly drawn) [Example 168, (3R)-3-amino-5-[[4-(5-cyclopropyl-1,2,4-oxadiazol-3-yl)phenyl]methyl]-1,1-dioxo-7-[5-(1,2,2,2-tetrafluoroethyl)-1,3,4-oxadiazol-2-yl]-2,3-dihydro-1λ^6,5-benzothiazepin-4-one] | > 62500 | 1600 | 62 | 2620
